Data from paper PMC11291634 (Scientific Reports, 2024).

Molecular target: carboxylesterase Ha006a
Assay: ITC with purified protein, one-site model, […] °C
Format: binding, Helicoverpa armigera

SMILES: CCNc1nc(Cl)nc(NC(C)C)n1 [ATZ, atrazine]
- Kd: 57 µM
